Experimental data taken from US20090246776A1, “Modulators of scarb-1 for treating acne or hyperseborrhea” (GALDERMA RESEARCH & DEVELOPMENT, priority 2006, published 2009).

Test system: SCARB-1 gene
Details: gonadectomized male mice, short-term treatment; effect not visible at 18, 24, 48 and 96 hours
Description: The expression of the genes was analyzed on an Affymetrix station (microfluidic model; hybridization oven; scanner; computer) following the protocols provided by the company. Briefly, the total RNA isolated from the tissues is transcribed to cDNA. From the double-stranded cDNA, a cRNA labeled with biotin is synthesized using T7 polymerase and a precursor NTP conjugated to biotin. The cRNAs are then fragmented to small sized fragments. All the molecular biology steps are checked using the Agilent “Lab on a chip” system in order to confirm the good efficiencies of the enzymatic reactions. The Affymetrix chip is hybridized with the biotinylated cRNA, rinsed and then fluorescence labeled using a fluorophore conjugated to streptavidin. After washings, the chip is scanned and the results are calculated using the MAS5 software provided by Affymetrix. An expression value is obtained for each gene as well as the indication of the significance of the value obtained.
B. Male mice were gonadectomized and treated with the vehicle or DHT. A kinetic study of the expression of the gene from 15 minutes to 96 hours was carried out. For this, the preputial glands were removed for a period ranging up to 4 days (androgenic treatment alone observation of a short-term kinetics), the RNA was isolated and the expression of the genes was analyzed by the Affymetrix technique (FIG. 2).

C[C@]12CCC(=O)C[C@@H]1CC[C@@H]1[C@@H]2CC[C@]2(C)[C@@H](O)CC[C@@H]12 [DHT, Dihydrotestosterone]
mRNA for SCARB-1 in the mouse preputial gland: not induced
